Test system: Metabolism protein genes
Experiment: DNA chip mRNA expression in yeast, metabolism protein genes (Table 7)
Format: cell-based, Saccharomyces cerevisiae S288C
Method in brief: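 Measured as treated-to-untreated fluorescence ratio on a full-genome yeast DNA chip. Cells (S288C, YPD, 25° C.) were exposed in log phase for two hours to one chemical, dosed to curb growth without killing.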

C[S+](C)[O-] [(15), dimethylsulfoxide]
The level of expressed mRNA in the presence of chemical substance/The level of expressed mRNA in the absence of chemical substance (yeast gene YAL012W): 3.1
The level of expressed mRNA in the presence of chemical substance/The level of expressed mRNA in the absence of chemical substance (yeast gene YAL038W): 3.1
The level of expressed mRNA in the presence of chemical substance/The level of expressed mRNA in the absence of chemical substance (yeast gene YAL044C): 0.7
The level of expressed mRNA in the presence of chemical substance/The level of expressed mRNA in the absence of chemical substance (yeast gene YAL054C): 0.9
The level of expressed mRNA in the presence of chemical substance/The level of expressed mRNA in the absence of chemical substance (yeast gene YAR071W): 1.1
The level of expressed mRNA in the presence of chemical substance/The level of expressed mRNA in the absence of chemical substance (yeast gene YBL001C): 1.0
level of expressed mRNA in the presence/in the absence of chemical substance (yeast gene YBR003W): 0.7
level of expressed mRNA in the presence/in the absence of chemical substance (yeast gene YBR011C): 2.1
The level of expressed mRNA in the presence of chemical substance/The level of expressed mRNA in the absence of chemical substance (yeast gene YBR014C): 1.2
level of expressed mRNA in the presence/in the absence of chemical substance (yeast gene YBR020W): 1.3
The level of expressed mRNA in the presence of chemical substance/The level of expressed mRNA in the absence of chemical substance (yeast gene YBR023C): 2.8
The level of expressed mRNA in the presence of chemical substance/The level of expressed mRNA in the absence of chemical substance (yeast gene YBR029C): 3.5
The level of expressed mRNA in the presence of chemical substance/The level of expressed mRNA in the absence of chemical substance (yeast gene YBR035C): 0.7
The level of expressed mRNA in the presence of chemical substance/The level of expressed mRNA in the absence of chemical substance (yeast gene YBR068C): 1.6
The level of expressed mRNA in the presence of chemical substance/The level of expressed mRNA in the absence of chemical substance (yeast gene YBR111C): 0.7
The level of expressed mRNA in the presence of chemical substance/The level of expressed mRNA in the absence of chemical substance (yeast gene YBR183W): 1.1
The level of expressed mRNA in the presence of chemical substance/The level of expressed mRNA in the absence of chemical substance (yeast gene YBR256C): 1.6
The level of expressed mRNA in the presence of chemical substance/The level of expressed mRNA in the absence of chemical substance (yeast gene YCL009C): 6.5
level of expressed mRNA in the presence/in the absence of chemical substance (yeast gene YCR010C): 1.2
level of expressed mRNA in the presence/in the absence of chemical substance (yeast gene YCR034W): 0.9
The level of expressed mRNA in the presence of chemical substance/The level of expressed mRNA in the absence of chemical substance (yeast gene YCR037C): 1.0
The level of expressed mRNA in the presence of chemical substance/The level of expressed mRNA in the absence of chemical substance (yeast gene YCR048W): 3.1
The level of expressed mRNA in the presence of chemical substance/The level of expressed mRNA in the absence of chemical substance (yeast gene YCR098C): 11.0
The level of expressed mRNA in the presence of chemical substance/The level of expressed mRNA in the absence of chemical substance (yeast gene YDL021W): 0.7
The level of expressed mRNA in the presence of chemical substance/The level of expressed mRNA in the absence of chemical substance (yeast gene YDL022W): 0.9
level of expressed mRNA in the presence/in the absence of chemical substance (yeast gene YDR050C): 1.9
level of expressed mRNA in the presence/in the absence of chemical substance (yeast gene YDR073W): 0.8
level of expressed mRNA in the presence/in the absence of chemical substance (yeast gene YDR123C): 1.2
level of expressed mRNA in the presence/in the absence of chemical substance (yeast gene YDR178W): 0.7
level of expressed mRNA in the presence/in the absence of chemical substance (yeast gene YDR277C): 0.4
level of expressed mRNA in the presence/in the absence of chemical substance (yeast gene YDR284C): 0.9
level of expressed mRNA in the presence/in the absence of chemical substance (yeast gene YDR345C): 0.8
The level of expressed mRNA in the presence of chemical substance/The level of expressed mRNA in the absence of chemical substance (yeast gene YDR380W): 2.4
level of expressed mRNA in the presence/in the absence of chemical substance (yeast gene YDR400W): 0.8
level of expressed mRNA in the presence/in the absence of chemical substance (yeast gene YDR408C): 1.0
The level of expressed mRNA in the presence of chemical substance/The level of expressed mRNA in the absence of chemical substance (yeast gene YDR410C): 1.2
level of expressed mRNA in the presence/in the absence of chemical substance (yeast gene YDR483W): 1.5
The level of expressed mRNA in the presence of chemical substance/The level of expressed mRNA in the absence of chemical substance (yeast gene YDR487C): 1.0
The level of expressed mRNA in the presence of chemical substance/The level of expressed mRNA in the absence of chemical substance (yeast gene YDR502C): 8.2
The level of expressed mRNA in the presence of chemical substance/The level of expressed mRNA in the absence of chemical substance (yeast gene YDR516C): 0.4
The level of expressed mRNA in the presence of chemical substance/The level of expressed mRNA in the absence of chemical substance (yeast gene YEL011W): 0.4
level of expressed mRNA in the presence/in the absence of chemical substance (yeast gene YEL063C): 1.3
level of expressed mRNA in the presence/in the absence of chemical substance (yeast gene YER015W): 0.8
The level of expressed mRNA in the presence of chemical substance/The level of expressed mRNA in the absence of chemical substance (yeast gene YER026C): 4.0
The level of expressed mRNA in the presence of chemical substance/The level of expressed mRNA in the absence of chemical substance (yeast gene YER053C): 1.1
level of expressed mRNA in the presence/in the absence of chemical substance (yeast gene YER081W): 0.5
The level of expressed mRNA in the presence of chemical substance/The level of expressed mRNA in the absence of chemical substance (yeast gene YER096W): 1.4
level of expressed mRNA in the presence/in the absence of chemical substance (yeast gene YER120W): 1.5
The level of expressed mRNA in the presence of chemical substance/The level of expressed mRNA in the absence of chemical substance (yeast gene YER178W): 1.8
level of expressed mRNA in the presence/in the absence of chemical substance (yeast gene YFL011W): 1.7
The level of expressed mRNA in the presence of chemical substance/The level of expressed mRNA in the absence of chemical substance (yeast gene YFL014W): 6.3
The level of expressed mRNA in the presence of chemical substance/The level of expressed mRNA in the absence of chemical substance (yeast gene YFL030W): 1.1
The level of expressed mRNA in the presence of chemical substance/The level of expressed mRNA in the absence of chemical substance (yeast gene YFL056C): 5.0
The level of expressed mRNA in the presence of chemical substance/The level of expressed mRNA in the absence of chemical substance (yeast gene YFR015C): 0.4
The level of expressed mRNA in the presence of chemical substance/The level of expressed mRNA in the absence of chemical substance (yeast gene YFR047C): 0.6
The level of expressed mRNA in the presence of chemical substance/The level of expressed mRNA in the absence of chemical substance (yeast gene YGL001C): 0.9
level of expressed mRNA in the presence/in the absence of chemical substance (yeast gene YGL012W): 0.6
The level of expressed mRNA in the presence of chemical substance/The level of expressed mRNA in the absence of chemical substance (yeast gene YGL022W): 4.0
The level of expressed mRNA in the presence of chemical substance/The level of expressed mRNA in the absence of chemical substance (yeast gene YGL104C): 0.9
level of expressed mRNA in the presence/in the absence of chemical substance (yeast gene YGL115W): 0.7
The level of expressed mRNA in the presence of chemical substance/The level of expressed mRNA in the absence of chemical substance (yeast gene YGL126W): 2.8
The level of expressed mRNA in the presence of chemical substance/The level of expressed mRNA in the absence of chemical substance (yeast gene YGL154C): 0.8
level of expressed mRNA in the presence/in the absence of chemical substance (yeast gene YGL205W): 2.0
The level of expressed mRNA in the presence of chemical substance/The level of expressed mRNA in the absence of chemical substance (yeast gene YGL248W): 1.8
The level of expressed mRNA in the presence of chemical substance/The level of expressed mRNA in the absence of chemical substance (yeast gene YGL253W): 0.8
The level of expressed mRNA in the presence of chemical substance/The level of expressed mRNA in the absence of chemical substance (yeast gene YGR037C): 1.5
The level of expressed mRNA in the presence of chemical substance/The level of expressed mRNA in the absence of chemical substance (yeast gene YGR060W): 1.4
level of expressed mRNA in the presence/in the absence of chemical substance (yeast gene YGR096W): 0.9
level of expressed mRNA in the presence/in the absence of chemical substance (yeast gene YGR191W): 1.5
The level of expressed mRNA in the presence of chemical substance/The level of expressed mRNA in the absence of chemical substance (yeast gene YGR194C): 0.6
level of expressed mRNA in the presence/in the absence of chemical substance (yeast gene YGR204W): 1.6
level of expressed mRNA in the presence/in the absence of chemical substance (yeast gene YGR288W): 0.8
level of expressed mRNA in the presence/in the absence of chemical substance (yeast gene YHR025W): 2.1
The level of expressed mRNA in the presence of chemical substance/The level of expressed mRNA in the absence of chemical substance (yeast gene YHR037W): 1.1
The level of expressed mRNA in the presence of chemical substance/The level of expressed mRNA in the absence of chemical substance (yeast gene YHR092C): 0.2
The level of expressed mRNA in the presence of chemical substance/The level of expressed mRNA in the absence of chemical substance (yeast gene YHR111W): 1.1
level of expressed mRNA in the presence/in the absence of chemical substance (yeast gene YHR123W): 2.3
The level of expressed mRNA in the presence of chemical substance/The level of expressed mRNA in the absence of chemical substance (yeast gene YHR137W): 2.8
The level of expressed mRNA in the presence of chemical substance/The level of expressed mRNA in the absence of chemical substance (yeast gene YHR174W): 2.0
The level of expressed mRNA in the presence of chemical substance/The level of expressed mRNA in the absence of chemical substance (yeast gene YHR176W): 1.5
The level of expressed mRNA in the presence of chemical substance/The level of expressed mRNA in the absence of chemical substance (yeast gene YHR190W): 1.3
level of expressed mRNA in the presence/in the absence of chemical substance (yeast gene YHR210C): 0.5
level of expressed mRNA in the presence/in the absence of chemical substance (yeast gene YIL006W): 1.5
The level of expressed mRNA in the presence of chemical substance/The level of expressed mRNA in the absence of chemical substance (yeast gene YIL033C): 1.0
The level of expressed mRNA in the presence of chemical substance/The level of expressed mRNA in the absence of chemical substance (yeast gene YIL045W): 0.6
The level of expressed mRNA in the presence of chemical substance/The level of expressed mRNA in the absence of chemical substance (yeast gene YIL107C): 1.0
The level of expressed mRNA in the presence of chemical substance/The level of expressed mRNA in the absence of chemical substance (yeast gene YIL154C): 4.3
The level of expressed mRNA in the presence of chemical substance/The level of expressed mRNA in the absence of chemical substance (yeast gene YIL155C): 1.4
The level of expressed mRNA in the presence of chemical substance/The level of expressed mRNA in the absence of chemical substance (yeast gene YIL167W): 0.6
The level of expressed mRNA in the presence of chemical substance/The level of expressed mRNA in the absence of chemical substance (yeast gene YIR036C): 1.1

Reference: patent US8192962B2, “Processes for detecting toxic substances” (Daikin Industries, Ltd., priority 2001, dated 2012)
